In brackets after ≈: the same amount, converted by molar mass. Like-named read-outs stand apart in the source and are kept apart here.

Data set [1] addresses Human CGRP receptors (consisting of CRLR and RAMP1) (Homo sapiens (Human), UniProt O60894+Q16602). Briefly: Radioligand binding assay (3H-telcagepant displacement). As to conditions: Sf21 cell membranes, 0.5 nM 3H-telcagepant, Ki by Cheng-Prussoff. Here is the method: Human Calcitonin Receptor Like Receptor (CRLR) and human RAMP1 were cloned into Invitrogen's (ThermoFisher Scientific, UK) pFastBac dual expression vector. Transposition of CRLR/RAMP1 DNA was performed using Invitrogen's Bac-to-Bac Baculovirus Expression Systems. P0 baculovirus was generated by transfecting SF9 cells with bacmid DNA using Cellfectin® II transfection reagent (ThermoFisher Scientific, UK, catalog number 10362-100). Following P0 generation P1 virus was then generated ready for large scale infection and membrane preparation. Sf21 cells were grown in expression medium ESF921 (Expression Systems, USA, catalog number 96-001-01) supplemented with 10% heat-inactivated FBS and 1% Pen/Strep and were infected at a cell density of 2.5×10^6 cells/mL and an MOI of 2. Expression was carried out over 48 h in a shaking incubator set at 27° C. The cell culture was centrifuged at 2,500 rcf for 10 min at 4° C. The pellets were resuspended in cold PBS supplemented with Roche's Complete EDTA-free protease inhibitor cocktail tablets (Roche Applied Sciences, catalog number 05056489001), 1 mM PMSF and 1 mM EDTA. The resuspended cell paste was then centrifuged at 3,273 rcf for 12 min at 4° C. The supernatant was discarded and the pellet frozen at −80° C. The cell pellet from a 4 L culture was resuspended in buffer containing 50 mM Hepes pH 7.5, 150 mM NaCl, 8 Roche EDTA-free protease inhibitor cocktail tablets and 1 mM PMSF. The suspension was left stirring at rt for 1 h and then homogenised for 90 s at 9,500 rpm using a VDI 25 (VWR, USA) homogeniser. The cells were then lysed using a Microfluidizer processor M-110L Pneumatic (Microfluidics, USA). After lysis, the mixture was homogenised for 90 s at 9,500 rpm and then centrifuged at 335 rcf for 10 min. The supernatant was then further ultra-centrifuged at 42,000 rpm for 90 min. After ultra-centrifugation, the supernatant was discarded and the pellet was resuspended in 50 mL (25 mL for each 2 L culture) of buffer containing 50 mM Hepes pH 7.5, 150 mM NaCl, 3 Roche EDTA-free protease inhibitor cocktail tablets and 1 mM PMSF. The suspension was then homogenised for 90 s at 9,500 rpm. The resulting membranes were then stored at −80° C.
Human CGRP receptors (consisting of CRLR and RAMP1) expressed in insect Sf21 cell membrane homogenates were re-suspended in the binding buffer (10 mM HEPES, pH 7.4, 5 mM MgCl2, 0.2% BSA) to a final assay concentration of […]. Saturation isotherms were determined by the addition of various concentrations of ^3H-telcagepant (Ho et al, The Lancet, 2008, 372, 2115) (in a total reaction volume of 250 μL) for 60 min at room temperature. At the end of the incubation, membranes were filtered onto a unifilter, a 96-well white microplate with bonded GF/B filter pre-incubated with 0.5% PEI, with a Tomtec cell harvester and washed 5 times with distilled water. Non-specific binding (NSB) was measured in the presence of 10 nM MK-3207 hydrochloride (CAS No. 957116-20-0). Radioactivity on the filter was counted (1 min) on a microbeta counter after addition of 50 μL of scintillation fluid.

The next data set deals with human CGRP receptor (Homo sapiens (Human), UniProt O60894+Q16602). Briefly: cAMP functional assay (HTRF) in SK-N-MC cells. It is filed as cell-based. As to conditions: read-out: pKb average (converted). Here is the method:
cAMP production following receptor activation was determined using the Homogeneous Time-Resolved Fluorescence (HTRF) cAMP dynamic-2 assay (Cisbio, France). The human neuroblastoma cell line SK-N-MC endogenously expressing the human CGRP receptor was seeded at a density of 12,500 cells/well in solid walled 96 well half area plates (Costar, Catalog Number 3688, Corning Life Sciences, Germany). After 16 h incubation at 37° C. media was removed and cells were incubated at 37° C. for 30 min in serum free media containing 500 μM IBMX (Tocris, Abingdon, UK, Catalog Number 2845) and increasing concentrations of test antagonist. Following this cells were challenged with an EC80 concentration of human CGRP (0.3 nM) for a further 30 min at 37° C. and then cAMP production was determined as manufacturer's instructions before plates were read on a PheraStar fluorescence plate reader (BMG LabTech, Germany). IC50 values were derived from the inhibition curve. The pIC50 values (where pIC50=−log10 IC50) were converted to a functional pKb value using a modified Cheng-Prussoff equation where Kd=agonist EC50 and L hot=agonist challenge concentration. The pKb values of certain compounds of the invention are detailed in Table 3.
On the technique in general: In TR-FRET formats the signal depends on donor and acceptor labels being close together.

The nature of data set [2]: Thermodynamic solubility profiling. It is filed as physicochemical. As to conditions: aqueous buffer, thermodynamic from solid. As to the method: A 50 mM DMSO stock solution of test compound was prepared, and from this, a working solution of 1 mM was prepared by dilution with DMSO. The UV absorbance of working solution was scanned from 220 nm to 1000 nm to identify the wavelength maxima of test compound. The 1 mM working solution was then serially diluted in DMSO to different concentrations to determine linearity/calibration curve. […] The resulting solution was then kept on a RotoSpin shaker at 50 rpm for 24 h at rt before the solution was filtered using 0.45 micron PVDF injector filters in order to remove the insoluble fraction of the compound. Subsequently, 150 uL of the filtrate is taken for quantification using a UV spectrophotometer, acquiring the optical density of standard solutions and test compound at the same wavelength maxima. From the optical density of test compound the thermodynamic solubility is calculated using the linearity/calibration curve and expressed as micromolar (μM). Solubility profiles of certain compounds of the invention are detailed in Table 6.

Data set [3] in a line: Pharmacokinetic profiling in cynomolgus monkey. In kind it is in vivo, male Cynomolgus Monkeys. As to conditions: male, plasma, 0.5 mg/kg, acidified saline; for clearance: cynomolgus monkey iv; for bioavailability: cynomolgus monkey sc.
Description: (§1) Following dosing by the routes above blood samples were taken at several time points (typically pre-dose, 0.083, 0.25, 0.5 1, 2, 4, 8 and 24 h) via serial tail vein bleeds (rat) or cephalic or saphenous vein (monkey) from the animal and centrifuged to separate plasma for analysis by LC/MS/MS assay. WinNonlin v6.2 statistics software (Pharsight Corporation, California, USA) was used to generate pharmacokinetic parameters using the non-compartmental model.
The nature of data set [4]: Pharmacokinetic profiling in rat. As to conditions: male, Sprague Dawley, plasma. It is filed as in vivo, male Sprague Dawley rats.
Description: Prior to IN dosing rats were anaesthetised with an intramuscular dose of 25-30 mg/kg ketamine cocktail (ketamine, xylazine hydrochloride and acepromazine maleate in saline) and the dose is introduced over 20-30 s via a polyethylene PE-10 tube inserted approximately 5 mm into the nasal cavity of the rat.
as §1
[5] abbreviates: PBS buffer pH 7.4, 24 h at rt, read-out: Thermodynamic solubility pH 7.4.
Setting [6] is: Sodium Phosphate Buffer pH 6.0, 24 h at rt, read-out: Thermodynamic solubility pH 6.

human CGRP receptor, sequence (Q16602 23-461): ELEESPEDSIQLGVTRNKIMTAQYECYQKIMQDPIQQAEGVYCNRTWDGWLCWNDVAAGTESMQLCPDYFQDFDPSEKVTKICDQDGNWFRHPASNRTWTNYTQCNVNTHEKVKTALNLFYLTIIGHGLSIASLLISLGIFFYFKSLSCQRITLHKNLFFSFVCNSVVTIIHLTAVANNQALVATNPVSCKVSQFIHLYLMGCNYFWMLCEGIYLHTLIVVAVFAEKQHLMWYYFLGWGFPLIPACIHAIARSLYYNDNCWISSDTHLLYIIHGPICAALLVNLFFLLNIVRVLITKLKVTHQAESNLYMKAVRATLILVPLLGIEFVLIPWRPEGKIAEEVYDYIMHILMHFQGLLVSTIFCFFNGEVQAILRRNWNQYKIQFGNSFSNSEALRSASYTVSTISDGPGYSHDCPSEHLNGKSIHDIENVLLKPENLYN
human CGRP receptor, sequence (O60894 27-148): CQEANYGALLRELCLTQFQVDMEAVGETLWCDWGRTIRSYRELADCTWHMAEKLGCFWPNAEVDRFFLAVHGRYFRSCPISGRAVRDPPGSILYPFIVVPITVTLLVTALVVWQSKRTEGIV
Human CGRP receptors (consisting of CRLR and RAMP1), sequence (Q16602 23-461): as the sequence (Q16602 23-461) above
Human CGRP receptors (consisting of CRLR and RAMP1), sequence (O60894 27-148): as the sequence (O60894 27-148) above

With `Cc1cc(C[C@@H](NC(=O)N2CCC(c3cc4ccccc4[nH]c3=O)CC2)C(=O)N2CCC(N3CCC(c4nnc(C(=O)O)[nH]4)CC3)CC2)cc2cn[nH]c12` [Example 9, 5-{1′-[(2R)-3-(7-methyl-1H-indazol-5-yl)-2-({[4-(2-oxo-1,2-dihydroquinolin-3-yl)piperidin-1-yl]carbonyl}amino)propanoyl]-1,4′-bipiperidin-4-yl}-4H-1,2,4-triazole-3-carboxylic Acid], the pKi average in data set [1] was 10.3. In addition, on human CGRP receptor, the Kb was 0.398 nM.

As usually defined, the thermodynamic solubility is solubility found after equilibrating the solid with the medium. Compound `Cc1cc(C[C@@H](NC(=O)N2CCC(c3cc4ccccc4[nH]c3=O)CC2)C(=O)N2CCC(N3CCC(c4nnc[nH]4)CC3)CC2)cc2cn[nH]c12` [Example 7, N-{(2R)-3-(7-methyl-1H-indazol-5-yl)-1-oxo-1-[4-(4H-1,2,4-triazol-3-yl)-1,4′-bipiperidin-1′-yl]propan-2-yl}-4-(2-oxo-1,2-dihydroquinolin-3-yl)piperidine-1-carboxamide] registered a pKi average in data set [1] of 9.8. Besides, the solubility (thermodynamic) at 24 h stood at 342 µM (≈ 236 µg/mL) in data set [2] (setting [5]) and 785 µM (≈ 542 µg/mL) in data set [2] (setting [6]). The Kb on human CGRP receptor is 0.316 nM.

By clearance is commonly meant the volume of plasma or blood freed of the substance per unit of time. The term bioavailability denotes the share of a dose that reaches the circulation, judged against a reference dose that is usually intravenous. Turning to `Cc1nc[nH]c1C1CCN(C2CCN(C(=O)[C@@H](Cc3cc(C)c4[nH]ncc4c3)NC(=O)N3CCC(c4cc5ccccc5[nH]c4=O)CC3)CC2)CC1` [Example 2, N-[(2R)-1-[4-(4-methyl-1H-imidazol-5-yl)-1,4′-bipiperidin-1′-yl]-3-(7-methyl-1H-indazol-5-yl)-1-oxopropan-2-yl]-4-(2-oxo-1,2-dihydroquinolin-3-yl)piperidine-1-carboxamide], the pKi average in data set [1] is on record as 10.1. In data set [3], the clearance came to 24 mL/min/kg. Further, the bioavailability came to 100% in data set [3], 25% in data set [4] (inhaled or intranasal) and 69% in data set [4] (sc). For the same compound, the solubility (thermodynamic) at 24 h in data set [2] (setting [5]) is 18 µM (≈ 12.7 µg/mL); in data set [2] (setting [6]) it was 2040 µM (≈ 1440 µg/mL). The Kb at human CGRP receptor is 0.316 nM.

In data set [1], `Cc1nnc(C2CCN(C3CCN(C(=O)[C@@H](Cc4cc(C)c5[nH]ncc5c4)NC(=O)N4CCC(c5cc6ccccc6[nH]c5=O)CC4)CC3)CC2)[nH]1` [Example 8, N-{(2R)-3-(7-methyl-1H-indazol-5-yl)-1-[4-(5-methyl-4H-1,2,4-triazol-3-yl)-1,4′-bipiperidin-1′-yl]-1-oxopropan-2-yl}-4-(2-oxo-1,2-dihydroquinolin-3-yl)piperidine-1-carboxamide] gave a pKi average of 10.0. In addition, the values for the thermodynamic solubility at 24 h in data set [2] (setting [5]) and in data set [2] (setting [6]) were 359 µM (≈ 253 µg/mL) and 1220 µM (≈ 858 µg/mL), respectively. Further, the Kb at human CGRP receptor was 0.316 nM.

Take `NCCCC[C@H](NC(=O)[C@@H](Cc1cc(Br)c(O)c(Br)c1)NC(=O)N1CCC(N2Cc3ccccc3NC2=O)CC1)C(=O)N1CCN(c2ccncc2)CC1` [olcegepant, reference compound]: the thermodynamic solubility at 24 h turned out to be 431 µM (≈ 375 µg/mL) in data set [2] (setting [5]) and 150 µM (≈ 130 µg/mL) in data set [2] (setting [6]). Besides, the values for the bioavailability in data set [4] (inhaled or intranasal) and in data set [4] (sc) were 8% and 48%, respectively.

`Cc1cc(C[C@@H](NC(=O)N2CCC(c3cc4ccccc4[nH]c3=O)CC2)C(=O)N2CCC(N3CCC(c4ncc[nH]4)CC3)CC2)cc2cn[nH]c12` [Example 1, N-[(2R)-1-[4-(1H-imidazol-2-yl)-1,4′-bipiperidin-1′-yl]-3-(7-methyl-1H-indazol-5-yl)-1-oxopropan-2-yl]-4-(2-oxo-1,2-dihydroquinolin-3-yl)piperidine-1-carboxamide] came in with a pKi average in data set [1] of 10.3. In addition, on human CGRP receptor, the Kb was 0.2 nM.

As to `CCOC(=O)c1nnc(C2CCN(C3CCN(C(=O)[C@@H](Cc4cc(C)c5[nH]ncc5c4)NC(=O)N4CCC(c5cc6ccccc6[nH]c5=O)CC4)CC3)CC2)[nH]1` [Example 6, ethyl 5-{1′-[(2R)-3-(7-methyl-1H-indazol-5-yl)-2-({[4-(2-oxo-1,2-dihydroquinolin-3-yl)piperidin-1-yl]carbonyl}amino)propanoyl]-1,4′-bipiperidin-4-yl}-4H-1,2,4-triazole-3-carboxylate], the pKi average in data set [1] is 10.2. Also, the Kb on human CGRP receptor was 0.2 nM.

Take `Cc1cc(C[C@@H](NC(=O)N2CCC(c3cc4ccc(F)cc4[nH]c3=O)CC2)C(=O)N2CCC(N3CCC(c4nncn4C)CC3)CC2)cc2cn[nH]c12` [Example 5, 4-(7-fluoro-2-oxo-1,2-dihydroquinolin-3-yl)-N-{(2R)-3-(7-methyl-1H-indazol-5-yl)-1-[4-(4-methyl-4H-1,2,4-triazol-3-yl)-1,4′-bipiperidin-1′-yl]-1-oxopropan-2-yl}piperidine-1-carboxamide]: in data set [1], the pKi average is given as 9.9. Also, the solubility (thermodynamic) at 24 h in data set [2] (setting [5]) was determined as 239 µM (≈ 173 µg/mL); in data set [2] (setting [6]) it was 1540 µM (≈ 1110 µg/mL). The Kb on human CGRP receptor was 0.631 nM.

In data set [1], `Cc1cc(C[C@@H](NC(=O)N2CCC(c3cc4ccccc4[nH]c3=O)CC2)C(=O)N2CCC(N3CCC(c4nncn4C)CC3)CC2)cc2cn[nH]c12` [Example 4, N-{(2R)-3-(7-methyl-1H-indazol-5-yl)-1-[4-(4-methyl-4H-1,2,4-triazol-3-yl)-1,4′-bipiperidin-1′-yl]-1-oxopropan-2-yl}-4-(2-oxo-1,2-dihydroquinolin-3-yl)piperidine-1-carboxamide] displayed a pKi average of 10.0. Besides, in data set [3], the clearance came out at 15 mL/min/kg. Also, the bioavailability was determined as 100% in data set [3], 27% in data set [4] (inhaled or intranasal) and 82% in data set [4] (sc). In addition, the thermodynamic solubility at 24 h worked out at 32 µM (≈ 22.6 µg/mL) in data set [2] (setting [5]) and 1590 µM (≈ 1120 µg/mL) in data set [2] (setting [6]). For the same compound, on human CGRP receptor, the Kb is 0.631 nM.

In the case of `CCCn1ccnc1C1CCN(C2CCN(C(=O)[C@@H](Cc3cc(C)c4[nH]ncc4c3)NC(=O)N3CCC(c4cc5ccccc5[nH]c4=O)CC3)CC2)CC1` [Example 3, N-{(2R)-3-(7-methyl-1H-indazol-5-yl)-1-oxo-1-[4-(1-propyl-1H-imidazol-2-yl)-1,4′-bipiperidin-1′-yl]propan-2-yl}-4-(2-oxo-1,2-dihydroquinolin-3-yl)piperidine-1-carboxamide], the pKi average in data set [1] was determined as 9.8. Besides, the thermodynamic solubility at 24 h in data set [2] (setting [5]) worked out at 2 µM (≈ 1.46 µg/mL); in data set [2] (setting [6]), 1250 µM (≈ 914 µg/mL). Moreover, on human CGRP receptor, the Kb was 0.398 nM.

Source of the values: patent publication US10166226B2, “CGRP receptor antagonists” (Heptares Therapeutics Limited, priority 2015, dated 2019).
